# pIC50: −log10 of the molar value.
# Target: T1, K103NNY181C mutant reverse transcriptase (Human immunodeficiency virus type 1 group M subtype B, UniProt P04585, K690N/Y768C)
# T1 construct: mutations that occur in the reverse transcriptase segment of the pol gene
# Experiment: Reverse transcriptase enzymatic assay (PicoGreen), K103N/Y181C mutant RT
# Format: biochemical, HIV-1
# Settings: IC50 mut (nM), mutant (K103N/Y181C) reverse transcriptase, enzymatic assay of Example 24
# Method in brief: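 HIV-1 RT (2.5 nM final) pre-incubated 15 min at room temperature with inhibitor, then reacted 50 min at 37 °C with poly rC 45 nM, dG15 4.5 nM, dGTP 3.6 μM in Tris/HCl pH 7.8, 1% DMSO. Final inhibitor 10 μM to 0.508 nM; EDTA-quenched, PicoGreen fluorescence read at 485/520 nm.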
row,Structure (SMILES),IC50
1,CC(C)(C)c1ccc(-n2nnnc2SCC(=O)Nc2ccc(NC(=O)Cc3ccccc3[N+](=O)[O-])cc2Cl)c(Cl)c1 [Compound 7019],25 nM
2,CC(C)(C)c1ccc(-n2nnnc2SCC(=O)Nc2ccc(NC(=O)Cc3cccc([N+](=O)[O-])c3)cc2Cl)c(Cl)c1 [Compound 7017],170 nM
3,CCOC(=O)c1ccc(NC(=O)Nc2ccc(NC(=O)CSc3nnnn3-c3ccc(C(C)(C)C)cc3Cl)c(Cl)c2)cc1 [Compound 7006],74 nM
4,CC(C)(C)c1ccc(-n2nnnc2SCC(=O)Nc2ccc(NC(=O)Cc3c(Cl)cccc3Cl)cc2Cl)c(Cl)c1 [Compound 7036],712 nM
5,CC(C)(C)c1ccc(-n2nnnc2SCC(=O)Nc2ccc(NC(=O)c3ccc(O)cc3)cc2Cl)c(Cl)c1 [Compound 7011],181 nM

# Same assay, conditions: IC50 mut, K103N/Y181C mutant reverse transcriptase, enzymatic assay of Example 24
row,Structure (SMILES),pIC50
1,CN(C)S(=O)(=O)NC(=O)C(C)(C)C#Cc1ccc(NC(=O)CSc2nnnn2-c2ccc(C3CC3)cc2Cl)c(Cl)c1 [Compound 4185],7.26
2,CC(C)(C)c1ccc(-n2nnnc2SCC(=O)Nc2ccc(C#CC3(O)CCC3)cc2Cl)c(Cl)c1 [Compound 4062],7.28
3,CN1CCN(CC2(C#Cc3ccc(NC(=O)CSc4nnnn4-c4ccc(C5CC5)cc4Cl)c(Cl)c3)CC2)CC1 [Compound 4094],7.31
4,CC(C)(C#Cc1ccc(NC(=O)CSc2nnnn2-c2cc(C(F)(F)F)ccc2Cl)c(Cl)c1F)NC(=O)c1cc[n+]([O-])cc1 [Compound 4164],7.73
5,CC(C)(C)c1ccc(-n2nnnc2SCC(=O)Nc2ccc(C#CCN3CCOCC3)cc2Cl)c(Cl)c1 [Compound 4010],7.57
6,CN1CCN(CCOC(C)(C)C#Cc2ccc(NC(=O)CSc3nnnn3-c3ccc(C4CC4)cc3Cl)c(Cl)c2)CC1 [Compound 4105],7.18
7,CC(C)(C#Cc1ccc(NC(=O)CSc2nnnn2-c2ccc(C3CC3)cc2Cl)c(Cl)c1)NC(=O)CN1CCN(CCn2cccc2)CC1 [Compound 4126],7.11
8,CN(C)CCCC(=O)NC(C)(C)C#Cc1ccc(NC(=O)CSc2nnnn2-c2cc(C(F)(F)F)ccc2Cl)c(Cl)c1F [Compound 4170],7.47
9,CN(C)CCCC(=O)NC(C)(C)C#Cc1ccc(NC(=O)CSc2nnnn2-c2ccc(C3CC3)cc2Cl)c(Cl)c1F [Compound 4156],7.44
10,CN(C)CC(=O)NC(C)(C)C#Cc1ccc(NC(=O)CSc2nnnn2-c2cc(C(F)(F)F)ccc2Cl)c(Cl)c1F [Compound 4171],7.50
11,CC(C)(C)c1ccc(-n2nnnc2SCC(=O)Nc2ccc(C#CCN3CCCC3)cc2Cl)c(Cl)c1 [Compound 4012],7.34
12,CC(=O)NNC(=O)COC(C)(C)C#Cc1ccc(NC(=O)CSc2nnnn2-c2ccc(C(C)(C)C)cc2Cl)c(Cl)c1 [Compound 4043],7.46
13,CN(C)c1ccc(CNC(=O)C(C)(C)C#Cc2ccc(NC(=O)CSc3nnnn3-c3ccc(C4CC4)cc3Cl)c(Cl)c2)cc1 [Compound 4153],6.90
14,CC(C)(C#Cc1ccc(NC(=O)CSc2nnnn2-c2cc(C(F)(F)F)cc(C3CC3)c2Cl)c(Cl)c1F)NC(=O)c1ccc[n+]([O-])c1 [Compound 4230],7.52
15,CC(C)(C#Cc1ccc(NC(=O)CSc2nnnn2-c2ccc(C3CC3)cc2Cl)c(Cl)c1)NC(=O)CNc1ccncc1 [Compound 4188],7.62
16,CC(C)(C#Cc1ccc(NC(=O)CSc2nnnn2-c2ccc(C3CC3)cc2Cl)c(Cl)c1)NC(=O)c1ccc[n+]([O-])c1 [Compound 4191],8.32
17,CC(C)c1ccc(-n2nnnc2SCC(=O)Nc2ccc(C#CC(C)(C)C(=O)O)cc2Cl)c(Cl)c1 [Compound 4121],7.47

row,Structure (SMILES),pIC50
1,CC(C)(C#Cc1ccc(NC(=O)CSc2nnnn2-c2ccc(C(C)(C)C)cc2Cl)c(Cl)c1)OCC(=O)NCCO [Compound 4048],7.59
2,CN1CCN(C(=O)COC(C)(C)C#Cc2ccc(NC(=O)CSc3nnnn3-c3ccc(C(C)(C)C)cc3Cl)c(Cl)c2)CC1 [Compound 4023],7.19
3,CC(C)(C#Cc1ccc(NC(=O)CSc2nnnn2-c2cc(C3CC3)ccc2Cl)c(Cl)c1)NC(=O)CN [Compound 4214],7.71
4,CC(C)(C#Cc1ccc(NC(=O)CSc2nnnn2-c2ccc(C3CC3)cc2Cl)c(Cl)c1)OCCOc1ccncc1 [Compound 4167],7.40
5,CC(C)(C#Cc1ccc(NC(=O)CSc2nnnn2-c2ccc(C(C)(C)C)cc2Cl)c(Cl)c1)CO [Compound 4016],7.46
6,CC(C)(C#Cc1ccc(NC(=O)CSc2nnnn2-c2ccc(C3CC3)cc2Cl)c(Cl)c1)NCc1nccs1 [Compound 4129],7.81
7,CC(C)(C#Cc1ccc(NC(=O)CSc2nnnn2-c2cc(C(F)(F)F)ccc2Cl)c(Cl)c1)NC(=O)c1ncccn1 [Compound 4139],7.69
8,CC(C)(C)c1ccc(-n2nnnc2SCC(=O)Nc2ccc(C#CCCCO)cc2Cl)c(Cl)c1 [Compound 4004],7.80
9,CC(C)(C#Cc1ccc(NC(=O)CSc2nnnn2-c2ccc(C3CC3)cc2Cl)c(Cl)c1)NC(=O)CN1CCC(C(=O)O)CC1 [Compound 4154],7.98
10,CNC(=O)COC(C)(C)C#Cc1ccc(NC(=O)CSc2nnnn2-c2ccc(C(C)(C)C)cc2Cl)c(Cl)c1 [Compound 4051],7.46
11,CC(C)(C#Cc1ccc(NC(=O)CSc2nnnn2-c2cc(C3CC3)cc(C(F)(F)F)c2Cl)c(Cl)c1F)NC(=O)c1ccc[n+]([O-])c1 [Compound 4248],7.52
12,CC(C)(C#Cc1ccc(NC(=O)CSc2nnnn2-c2ccc(C3CC3)cc2Cl)c(Cl)c1)NC(=O)c1cnccn1 [Compound 4111],8.07
13,CN(C)CCCNC(=O)C(C)(C)C#Cc1ccc(NC(=O)CSc2nnnn2-c2ccc(CC3CC3)cc2Cl)c(Cl)c1 [Compound 4245],6.34
14,CN(C)CCCC(=O)NC(C)(C)C#Cc1ccc(NC(=O)CSc2nnnn2-c2cc(C(F)(F)F)ccc2Cl)c(Cl)c1 [Compound 4147],7.28
15,CC(C)(C#Cc1ccc(NC(=O)CSc2nnnn2-c2ccc(C3CC3)cc2Cl)c(Cl)c1F)OCCN1CCCC1 [Compound 4175],7.17
16,CC(C)(C#Cc1ccc(NC(=O)CSc2nnnn2-c2ccc(C3CC3)cc2Cl)c(Cl)c1)C(=O)NC(C)(C)C(=O)O [Compound 4144],7.09

# Same assay, conditions: IC50 mut, mutant reverse transcriptase, enzymatic assay of Example 24
row,Structure (SMILES),pIC50
1,CC(C)(C)c1ccc(-n2nnnc2SCC(=O)Nc2ccc(OCC(=O)NC[C@H]3CC[C@H](C(=O)O)CC3)cc2Cl)c(Cl)c1 [Compound 5031],6.93
2,CN1CCN(C(=O)c2ccc(NC(=O)CSc3nnnn3-c3ccc(C(C)(C)C)cc3Cl)c(Cl)c2)CC1 [Compound 6004],6.40
3,CC(C)(C)c1ccc(-n2nnnc2SCC(=O)Nc2ccc(C(=O)Nc3ccc(C(=O)O)cc3)cc2Cl)c(Cl)c1 [Compound 6014],7.47
4,CC(C)(C)c1ccc(-n2nnnc2SCC(=O)Nc2ccc(OCC(=O)NCCC(=O)O)cc2Cl)c(Cl)c1 [Compound 5025],6.91
5,Cc1ccc(-c2ncsc2SCC(=O)Nc2ccc(-c3ccc(CC(=O)O)cc3)cc2Cl)c(Cl)c1 [Compound 1002],6.10
6,Cc1ccc(-c2cn[nH]c2OCC(=O)Nc2ccc(-c3ccc(CC(=O)O)cc3)cc2Cl)c(Cl)c1 [Compound 1010],6.81
7,O=C(CSc1nnnn1-c1cc(C(F)(F)F)ccc1Cl)Nc1ccc(-c2ccc(OCCN3CCCC3)cc2)c(F)c1Cl [Compound 2058],7.60
8,CC(C)(C)c1ccc(-n2nnnc2SCC(=O)Nc2ccc(OCC(=O)Nc3cccc(C(=O)O)c3)cc2Cl)c(Cl)c1 [Compound 5022],6.97
9,O=C(COc1ccc(NC(=O)CSc2nnnn2-c2ccc(C3CC3)cc2Cl)c(Cl)c1)NCCc1cccnc1 [Compound 5035],6.59
10,CC(C)(COc1ccc(NC(=O)CSc2nnnn2-c2ccc(C3CC3)cc2Cl)c(Cl)c1)C(=O)O [Compound 3046],6.98
11,CC(C)c1ccc(-n2nnnc2SCC(=O)Nc2ccc(-c3ccc(OCCN4CCCC4)cc3)cc2Cl)c(Cl)c1 [Compound 2056],7.54
12,CC(C)(C)c1ccc(-n2nnnc2SCC(=O)Nc2ccc(C(=O)NCc3cccnc3)cc2Cl)c(Cl)c1 [Compound 6008],7.59
13,O=C(COc1ccc(NC(=O)CSc2nnnn2-c2ccc(C3CC3)cc2Cl)c(Cl)c1)NCCc1cccc[n+]1[O-] [Compound 5038],6.25
14,CC(C)(C)c1ccc(-n2nnnc2SCC(=O)Nc2ccc(-c3ccc(/C=C/C(=O)O)s3)cc2Cl)c(Cl)c1 [Compound 3031],7.81
15,CC(C)(C)c1ccc(-n2nnnc2SCC(=O)Nc2ccc(C(=O)NC3CC3)cc2Cl)c(Cl)c1 [Compound 6002],7.51
16,CC(C)(C)c1ccc(-n2nnnc2SCC(=O)Nc2ccc(OCC(=O)NCc3ccco3)cc2Cl)c(Cl)c1 [Compound 5002],6.86
17,CC(C)(C)c1ccc(-n2nnnc2SCC(=O)Nc2ccc(S(=O)(=O)NCCO)cc2Cl)c(Cl)c1 [Compound 3027],7.09
18,CC(C)(C)c1ccc(-n2nnnc2SCC(=O)Nc2ccc(S(=O)(=O)Nc3ccccc3)cc2Cl)c(Cl)c1 [Compound 3026],6.37
19,Cc1ccc(-n2c(C)cnc2SCC(=O)Nc2ccc(-c3ccc(CC(=O)O)cc3)cc2Cl)c(Cl)c1 [Compound 1009],6.26
20,CN1CCN(S(=O)(=O)c2ccc(NC(=O)CSc3nnnn3-c3ccc(C4CC4)cc3Cl)c(Cl)c2)CC1 [Compound 3036],7.06
21,CC(C)(C)c1ccc(-n2nnnc2SCC(=O)Nc2ccc(C(=O)Nc3ccc(/C=C/C(=O)O)cc3)cc2Cl)c(Cl)c1 [Compound 6022],7.85
22,CC(C)(C)c1ccc(-n2nnnc2SCC(=O)Nc2ccc(-c3ccc(OCCn4ccnc4)cc3)cc2Cl)c(Cl)c1 [Compound 2036],7.17
23,CC(C)(C)c1ccc(-n2nnnc2SCC(=O)Nc2ccc(-c3ccc(OCCN4CCC(O)CC4)cc3)cc2Cl)c(Cl)c1 [Compound 2031],7.47
24,O=C(O)Cc1ccc(-c2ccc(NC(=O)CSc3nnnn3-c3ccc(C(F)(F)F)cc3Cl)c(Cl)c2)cc1 [Compound 2023],6.77

# From US7517998B2, “Non nucleoside reverse transcriptase inhibitors” (priority 2004, dated 2009)
